# Where two headings read alike, the source gives them in different places.
# Tests used:
# Boophilus microplus = Boophilus microplus test (BOOPMI injection); assay type: in vivo; settings: 20 μg/animal, after 7 days
# Description: Boophilus microplus Test (BOOPMI Injection) [table] To produce a suitable active compound formulation, 10 mg of active compound are mixed with 0.5 ml of solvent and the concentrate is diluted with solvent to the desired concentration. The active compound solution is injected into the abdomen (Boophilus microplus), and the animals are transferred into dishes and stored in a climate-controlled room. After 7 days, the efficacy in % is determined. The activity is assessed by laying of fertile eggs. 100% means that none of the ticks has laid any fertile eggs.
# Ctenocephalides felis = assay: Ctenocephalides felis; oral (CTECFE); assay type: in vivo; settings: 100 ppm, oral in cattle blood, after 2 days
# Description: Ctenocephalides felis; Oral (CTECFE)
# To produce a suitable active compound formulation, 10 mg of active compound are mixed with 0.5 ml of dimethyl sulphoxide. A portion of the concentrate is diluted with citrated cattle blood, and the desired concentration is prepared.
# About 20 unfed adult fleas (Ctenocephalides felis) are placed into a chamber which is closed at the top and bottom with gauze. A metal cylinder whose bottom end is closed with parafilm is placed onto the chamber. The cylinder contains the blood/active compound preparation, which can be imbibed by the fleas through the parafilm membrane.
# After 2 days, the kill in % is determined 100% means that all fleas have been killed; 0% means that none of the fleas have been killed.
# Lucilia cuprina larvae = assay: Lucilia cuprina test (LUCICU); assay type: in vivo; settings: 100 ppm, after 2 days
# Description: (§1) Lucilia cuprina Test (LUCICU) [table] To produce a suitable active compound formulation, 10 mg of active compound are mixed with 0.5 ml of dimethyl sulfoxide, and the concentrate is diluted with water to the desired concentration. Vessels containing horse meat treated with the active compound formulation of the desired concentration are populated with about 20 Lucilia cuprina larvae. After 2 days, the kill in % is determined 100% means that all the larvae have been killed; 0% means that none of the larvae have been killed.
# adult Musca domestica = assay: Musca domestica test (MUSCDO); assay type: in vivo; settings: 100 ppm, after 2 days
# Description: as §1, with “Musca domestica” for “Lucilia cuprina”, “(MUSCDO)” for “(LUCICU)”, “a sponge” for “horse meat”, “adult Musca domestica.” for “about 20 Lucilia cuprina larvae.”, “flies” for “the larvae”, “no flies” for “none of the larvae”
# [1] = test system: larvae of the mustard beetle (Phaedon cochleariae); assay: Phaedon cochleariae spray test (PHAECO); assay type: in vivo; settings: for pest or weed control at 100 g/ha / efficacy: spray, after 7 days, 100 g/ha; for pest or weed control at 100 g/ha: read-out: efficacy
# Description: Phaedon cochleariae—Spray Test (PHAECO)
# (§2) To produce a suitable preparation of active compound, 1 part by weight of active compound is mixed with the stated amounts of solvent and emulsifier, and the concentrate is diluted with emulsifier-containing water to the desired concentration.
# Discs of Chinese cabbage leaves (Brassica pekinensis) are sprayed with an active compound formulation of the desired concentration and, after drying, populated with larvae of the mustard beetle (Phaedon cochleariae).
# After 7 days, the efficacy in % is determined. 100% means that all the beetle larvae have been killed; 0% means that no beetle larvae have been killed.
# After the stated period of time, the effect in % is determined 100% means that all the beetle larvae have been killed; 0% means that no beetle larvae have been killed.
# [2] = test system: caterpillars of the armyworm (Spodoptera frugiperda); assay: Spodoptera frugiperda spray test (SPODFR); assay type: in vivo; settings: for efficacy: 100 g/ha, spray, after 7 days
# Description: Spodoptera frugiperda—Spray Test (SPODFR)
# (§3) To produce a suitable active compound formulation, 1 part by weight of active compound is mixed with the stated amounts of solvent and emulsifier, and the concentrate is diluted with emulsifier-containing water to the desired concentration.
# Leaf discs of maize (Zea mays) are sprayed with an active compound formulation of the desired concentration and, after drying, populated with caterpillars of the armyworm (Spodoptera frugiperda).
# After 7 days, the efficacy in % is determined. 100% means that all the caterpillars have been killed; 0% means that no caterpillars have been killed.
# as §2
# Leaf discs of maize (Zea mays) are sprayed with an active compound preparation of the desired concentration and, after drying, populated with caterpillars of the armyworm (Spodoptera frugiperda).
# After the stated period of time, the effect in % is determined. 100% means that all the caterpillars have been killed; 0% means that no caterpillars have been killed.
# [3] = test system: greenhouse red spider mite (Tetranychus urticae); assay: Tetranychus urticae spray test, OP-resistant (TETRUR); assay type: in vivo; settings: for efficacy: 100 g/ha, spray, after 6 days
# Description: as §3
# Discs of bean leaves (Phaseolus vulgaris) infested by all stages of the greenhouse red spider mite (Tetranychus urticae) are sprayed with an active compound formulation of the desired concentration.
# After 6 days, the efficacy in % is determined 100% means that all the spider mites have been killed; 0% means that none of the spider mites have been killed. […]
# [4] = log P by HPLC on reversed-phase column (C18), EEC directive 79/831 Annex V.A8; assay type: physicochemical; settings: for chromatographic logP: reversed-phase HPLC column (C18)
# Description: a) The determination of the W by LC-MS in the acidic range is effected at pH 2.7, acetonitrile (contains 0.1% formic acid) and water as eluents; linear gradient from 10% acetonitrile to 95% acetonitrile, instrument: Agilent 1100 LC-System, Agilent MSD System, HTS PAL. The log P values reported in the tables and Preparation Examples above were determined in accordance with EEC directive 79/831 Annex V.A8 by HPLC (High Performance Liquid Chromatography) using a reversed-phase column (C18). Temperature 43° C. The calibration is effected with unbranched alkan-2-ones (having 3 to 16 carbon atoms), for which the log P values are known.
# [5] = test system: green peach aphid (Myzus persicae); assay: Myzus persicae spray test (MYZUPE); assay type: in vivo; settings: 100 g/ha, after 6 days
# Description: Myzus persicae-Spray Test (MYZUPE) [table] To produce a suitable active compound formulation, 1 part by weight of active compound is mixed with the stated amounts of solvent and emulsifier, and the concentrate is diluted with emulsifier-containing water to the desired concentration. Discs of Chinese cabbage leaves (Brassica pekinensis) infested by all stages of the green peach aphid (Myzus persicae) are sprayed with an active compound formulation of the desired concentration. After 6 days, the efficacy in % is determined 100% means that all the aphids have been killed; 0% means that none of the aphids have been killed.
# [6] = HPLC, acidic range pH 2.7, 43° C.
# [7] = HPLC, acidic range pH 2.7, 43° C., read-out: log p
"chromatographic logP ([4]; pH 2.7, final compounds of the synthesis examples, read-out: log P (HPLC-MS))",SMILES,efficacy (laying of fertile eggs) (Boophilus microplus) [%],efficacy (kill) (Ctenocephalides felis) [%],efficacy (kill) (Lucilia cuprina larvae) [%],efficacy (kill) (adult Musca domestica) [%],"pest or weed control at 100 g/ha ([1]; Phaedon cochleariae, 168 h) [%]",efficacy [2] [%],efficacy [3] [%],efficacy [1] [%],"log p [4, 6]",efficacy [5] [%],"percent efficacy (larval mortality) at 0.8 g/ha ([1]; Phaedon cochleariae, 168 h, PHAECO, 0.8 g of ai/ha, 7 d, read-out: % Efficacy dat) [%]","Emax at 4 g/ha ([2]; Spodoptera frugiperda, 168 h, SPODFR, 4 g of ai/ha, 7 d, read-out: % Efficacy dat) [%]","Emax at 4 g/ha ([3]; Tetranychus urticae, 144 h, TETRUR, 4 g of ai/ha, 6 d, read-out: % Efficacy dat) [%]","chromatographic logP [4, 7]","Emax at 100 g/ha ([3]; Tetranychus urticae, 144 h, TETRUR, 100 g of ai/ha, 6 d, read-out: % Efficacy dat) [%]"
3.52,"CCn1c(C(=O)NC(c2cccc(C(F)(F)F)c2)C(F)(F)F)cc2cc(C(=O)NC3CC3)c(C)nc21 (stereo not shown) [Compound 1, N^5-Cyclopropyl-1-ethyl-6-methyl-N^2-{2,2,2-trifluoro-1-[3-(trifluoromethyl)phenyl]ethyl}-1H-pyrrolo[2,3-b]pyridine-2,5-dicarboxamide]",100,100,100,100,100,100,90,,,,,,,,
,CCn1c(C(=O)NC(c2cccc(C(F)(F)F)c2)C(F)(F)F)cc2cc(C(=O)NC3CC3)c(Cl)nc21 (stereo not shown) [Compound 12],100,100,100,100,,100,100,100,3.70,,,,,,
,CCn1c(C(=O)NC(c2cccc(C(F)(F)F)c2)C(F)(F)F)cc2cc(C(=O)NC3CCC3)c(Cl)nc21 (stereo not shown) [Compound 15],,,,,,,,100,4.12,90,,,,,
,CCn1c(C(=O)NC(c2ccc(F)c(Cl)c2)C(F)(F)F)cc2cc(C(=O)NC3CC3)c(Cl)nc21 (stereo not shown) [Compound 16],100,100,100,100,,,90,100,3.61,,,,,,
,Cn1c(C(=O)NC(c2cccc(C(F)(F)F)c2)C(F)(F)F)cc2cc(C(=O)NC3CC3)c(Cl)nc21 (stereo not shown) [Compound 22],100,95,100,100,100,100,100,,,,100,100,90,3.4,
,CCn1c(C(=O)NC(c2cc(Cl)c(F)c(Cl)c2)C(F)(F)F)cc2cc(C(=O)NC3(C#N)CC3)c(Cl)nc21 (stereo not shown) [Compound 27],100,100,100,100,,100,100,100,4.11,,,,,,
,CCn1c(C(=O)NC(c2ccc(F)c(C(F)(F)F)c2)C(F)(F)F)cc2cc(C(=O)NC3CC3)c(Cl)nc21 (stereo not shown) [Compound 29],100,95,100,100,,100,90,100,,,,,,,
,CCn1c(C(=O)NC(c2ccc(Cl)c(Cl)c2)C(F)(F)F)cc2cc(C(=O)NC3(C#N)CC3)c(Cl)nc21 (stereo not shown) [Compound 32],100,100,100,100,,100,100,100,3.94,,,,,,
,CCn1c(C(=O)NC(c2cccc(C(F)(F)F)c2)C(F)(F)F)cc2cc(C(=O)NCC(F)(F)F)c(Cl)nc21 (stereo not shown) [Compound 41],100,100,100,100,,100,,100,4.08,,,,,,
,CCn1c(C(=O)NC(c2cccc(C(F)(F)F)c2)C(F)(F)F)cc2cc(C(=O)NCC#N)c(Cl)nc21 (stereo not shown) [Compound 42],100,100,100,100,100,,90,,,,,,,3.5,90
,CCn1c(C(=O)NC(c2ccc(F)c(C(F)(F)F)c2)C(F)(F)F)cc2cc(C(=O)NC3(C#N)CC3)c(Cl)nc21 (stereo not shown) [Compound 53],100,100,100,100,,100,100,100,3.77,,,,,,
,CCn1c(C(=O)NC(c2cc(Cl)c(F)c(Cl)c2F)C(F)(F)F)cc2cc(C(=O)NC3(C(N)=S)CC3)c(Cl)nc21 (stereo not shown) [Compound 63],100,100,100,100,,100,90,100,4.20,,,,,,
,CCn1c(C(=O)NC(c2cc(Cl)c(F)c(Cl)c2)C(F)(F)F)cc2cc(C(=O)NC3(C(N)=S)CC3)c(Cl)nc21 (stereo not shown) [Compound 64],100,100,100,100,,100,100,100,3.97,,,,,,
,CCn1c(C(=O)NC(c2ccc(F)c(Cl)c2)C(F)(F)F)cc2cc(C(=O)NC3(C(N)=S)CC3)c(Cl)nc21 (stereo not shown) [Compound 65],100,100,100,80,,100,90,100,3.51,,,,,,
,CCn1c(C(=O)NC(c2ccc(F)c(C(F)(F)F)c2)C(F)(F)F)cc2cc(C(=O)NC3(C#N)CC3)c(C)nc21 (stereo not shown) [Compound 75],,,,,,100,100,100,3.64,90,,,,,

# From patent US9345247B2, “Azaindole carboxylic acid amides and azaindole thiocarboxylic acid amides for use as insecticides and acaricides” (BAYER CROPSCIENCE AG, priority 2012, dated 2016)
